Laboratory results published in PMC9979163, “Discovery and functional characterization of N-(thiazol-2-yl)-benzamide analogs as the first class of selective antagonists of the Zinc-Activated Channel (ZAC)” (Biochemical pharmacology, 2021).
One block for each compound: values may come before it.

Tests used:
[1] = target: metabotropic glutamate receptor 1; set-up: method as in PMID 19674894; conditions: Fig. 10; cited from earlier work
[2] = target: Adenosine A2A receptor; set-up: method as in PMID 21210664; conditions: Fig. 10; cited from earlier work
[3] = target: glucokinase; set-up: method as in PMID 19282189; conditions: Fig. 10; cited from earlier work
[4] = target: Adenosine A1 receptor; set-up: method as in PMID 11262085; conditions: Fig. 10; cited from earlier work
[5] = target: stearoyl-CoA desaturase; set-up: method as in PMID 19541482; conditions: Fig. 10; cited from earlier work
[6] = target: T1, ZAC (Homo sapiens, UniProt Q401N2); conditions: Zn2+ (1 mM) as agonist, TEVC; cited from earlier work
T1 sequence (Q401N2 26-412): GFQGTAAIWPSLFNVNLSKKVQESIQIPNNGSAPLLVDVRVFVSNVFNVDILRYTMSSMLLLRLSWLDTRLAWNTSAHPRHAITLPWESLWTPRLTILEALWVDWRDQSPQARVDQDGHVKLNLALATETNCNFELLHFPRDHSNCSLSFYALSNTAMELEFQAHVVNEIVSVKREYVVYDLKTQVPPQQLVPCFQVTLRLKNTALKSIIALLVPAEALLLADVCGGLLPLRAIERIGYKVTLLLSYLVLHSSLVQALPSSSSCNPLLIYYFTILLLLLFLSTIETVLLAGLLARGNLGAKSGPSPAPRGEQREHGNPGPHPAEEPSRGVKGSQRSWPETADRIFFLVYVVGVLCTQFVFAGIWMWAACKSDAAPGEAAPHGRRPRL

[7] = tested on: Hec1/Nek2 interaction; set-up: method as in PMID 18922912; conditions: Fig. 10; cited from earlier work
[8] = tested on: urease; set-up: method as in PMID 30086567; conditions: Fig. 10; cited from earlier work
[9] = tested on: HEK293 cells; experiment: FMP assay at HEK293 cells; type: cell-based; conditions: concentrations up to 300 μM, data not shown
[10] = target: T1, ZAC; experiment: FMP assay at ZAC-HEK293 cells; type: cell-based; conditions: ZAC-HEK293 cells, FMP assay, n = 4
Procedure: The screening of the 1,680 compounds in the compound library for antagonist activity at the ZAC-HEK293 cell line was performed in the FMP assay essentially as previously described. The day before the assay, cells were split into poly-D-lysine-coated black 96-well plates with clear bottoms (BD Biosciences, Palo Alto, CA) (6 × 10^4 cells/well). The following day, the culture medium was aspirated and the wells were washed once with 100 μl assay buffer (140 mM NaCl, 4.7 mM KCl, 2.5 mM CaCl2, 1.2 mM MgCl2, 11 mM HEPES, 10 mM D-glucose, pH 7.4), after which 100 μl assay buffer supplemented with FMP dye (0.5 mg/ml) and the various test compounds were added to the wells. The plate was then incubated at 37 °C for 30 min and assayed in a NOVOStar plate reader (BMG Labtechnologies, Offenburg, Germany) measuring emission at 560 nm caused by excitation at 530 nm before and up to 1 min after the addition of 33 μl of agonist solution. In the screening, the 1,680 compounds in the compound library were tested at assay concentrations in the 10–30 μM range, using Cu^2+ as agonist at an assay concentration of 200 μM.
Data from the FMP assay was analysed using KaleidaGraph 3.08 (Synergy Software, Reading, PA). Concentration-response curves for Cu^2+ and concentration-inhibition curves for compound 1 were constructed based on the difference in the relative fluorescence units (RFU) between the maximal fluorescence recorded before and after application of Cu^2+. The data were fitted to sigmoidal curves with variable slopes using nonlinear regression, and EC50 (Cu^2+) and IC50 (compound 1) values were derived from these equations.

[11] = target: T2, h5-HT3A (Homo sapiens, UniProt P46098); experiment: FMP assay at h5-HT3A-HEK293 cells; type: cell-based; conditions: concentrations up to 300 μM, data not shown
T2 construct: expressed in transfected cells
T2 sequence (P46098 24-478): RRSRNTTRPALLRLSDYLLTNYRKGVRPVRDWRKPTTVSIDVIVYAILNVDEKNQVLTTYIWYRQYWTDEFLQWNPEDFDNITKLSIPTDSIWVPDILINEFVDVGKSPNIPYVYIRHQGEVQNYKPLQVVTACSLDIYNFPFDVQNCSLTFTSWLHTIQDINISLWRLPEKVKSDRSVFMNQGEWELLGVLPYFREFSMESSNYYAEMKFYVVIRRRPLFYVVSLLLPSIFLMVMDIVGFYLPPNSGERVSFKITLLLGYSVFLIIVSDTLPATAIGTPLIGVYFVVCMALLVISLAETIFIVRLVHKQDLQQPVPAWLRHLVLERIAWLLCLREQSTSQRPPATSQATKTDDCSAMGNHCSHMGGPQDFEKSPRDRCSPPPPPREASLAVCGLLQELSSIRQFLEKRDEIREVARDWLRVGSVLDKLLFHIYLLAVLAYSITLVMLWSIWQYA

[12] = target: necroptosis; set-up: method as in PMID 30400632; conditions: Fig. 10; cited from earlier work

SMILES: CC(C)Nc1cc(-c2csc(N(C)C(=O)c3ccc(F)cc3)n2)ncn1 [Compound 27]
IC50 [1]: 5.1 nM

SMILES: CC(C)(C)CC(=O)Nc1c(F)cc(C(=O)Nc2nccs2)cc1F [Compound 28]
Ki [2]: 5.9 nM

SMILES: Cc1csc(NC(=O)c2cc(Oc3ccc(S(C)(=O)=O)cc3)cc(OC(C)C)c2)n1 [Compound 27e]
EC50 [3]: 330 nM

SMILES: COc1ccc(C(=O)Nc2nc(-c3ccccc3)cs2)cc1 [LUF5433]
IC50 [4]: 32 nM

SMILES: CCNc1ccc(C(=O)Nc2ncc(Cc3cccc(C(F)(F)F)c3)s2)cc1OCCO [Compound 37c]
IC50 [5]: 0.04 nM

SMILES: COc1cc2c3cc1Oc1cc(ccc1O)C[C@@H]1c4c(cc(OC)c(O)c4Oc4ccc(cc4)C[C@@H]3N(C)CC2)CC[N+]1(C)C [TC, tubocurarine]
Fitted inhibition range [6]: ~ 94%

SMILES: Cc1ccc(-c2csc(NC(=O)c3ccccc3)n2)c(C)c1 [INH1]
IC50 [7]: in uM range

SMILES: O=C(Nc1nc(Cc2nnc(SCc3ccc(F)cc3)o2)cs1)c1ccccc1 [Compound 7h]
IC50 [8]: 2200 nM

pEC50 ± S.E.M. (agonist) [10]: 4.59 ± 0.17
EC50 ([10]; read-out: EC50 (agonist)): 26000 nM
Agonist response [11]: did not evoke any responses
SMILES: [Cl][Cu][Cl] [Cu^2+, CuCl2]
Agonist response [9]: did not evoke any responses

SMILES: CCn1c(SCc2ccc(C(=O)Nc3nccs3)cc2)nnc1-c1ccc(N)cc1 [NTB451]
Ki [12]: 7900 nM
